Test results reported in patent US20250255856A1, “THERAPEUTIC COMPOSITIONS WITH IMINO SUGARS FOR THE TREATMENT OF DISEASES WITH ACCUMULATION OF HEPARAN SULFATE” (priority 2022, published 2025).
Structures can show the parent of a compound that is named as a salt.

Legend:
[1] = tested on: HeLa tumor epithelial cells; assay: HeLa cell proliferation assay; assay type: cell-based; conditions: after 48 hours
Protocol: Furthermore, treatment with the L-deoxyminosugars L-DNJ, L-NBDNJ, L-AMPDNM and L-MONDNJ caused a decrease of the number of HeLa cells after 48 hours as shown by the cell proliferation assay reported in Table 6.

[2] = tested on: HeLa tumor epithelial cells; assay: HS immunostaining in HeLa cells; assay type: cell-based; conditions: 48 hours
Protocol: To test whether treatment with the selected L-deoxyminosugars (L-DNJ, L-NBDNJ, L-AMPDNM and L-MONDNJ) could interfere with HS synthesis we selected a cell line not mutated for NAGLU and highly decorated by heparan sulfate on the cell membrane. For this purpose, HeLa tumor epithelial cells (purchased from ATCC) were cultured for 48 hours in the presence of the selected L-iminosugars and the amount of HS was evaluated by immunostaining.

[3] = tested on: NAGLU-silenced clone (cl5) of human neuroblastoma cell line SK-NBE; assay: Lamp1 immunofluorescence (lysosomal accumulation) in NAGLU-silenced SK-NBE clone, Sanfilippo B model; assay type: cell-based; conditions: 48 hours; for Cells positive for Lamp1 (%) / Relative Lamp1 fluorescence intensity: cl5 clone, 20 μM; for Effect on lysosomal enlargement and accumulation (lysosomal phenotype), in words: clone 5, 20 μM
From the text: (§1) To study the effects of the compounds on the lysosomal dysfunctions in a neuronal model of Sanfilippo B disease (MPS IIIB), we recently generated stable clones of the human neuroblastoma cell line SK-NBE silenced for the NAGLU gene causative of MPS IIIB [De Pasquale V, et al. (2021). Biochim Biophys Acta Mol Cell Res. 1868, 119113.]. Mimicking the features of Sanfilippo B disease, silencing of NAGLU causes accumulation of heparan sulfate and accumulation of lysosomes in the cytoplasm of stable SK-NBE clones compared to the control (WT) clone.
(§2) Therefore, NAGLU-silenced clone (c15) and control clone (WT) were selected to test the effect of L-deoxyminosugars (L-DNJ, L-NBDNJ, L-NNDNJ, L-HPDNJ, L-NPDNJ, L-AMPDNM and L-MONDNJ) in the hydrochloride form on the lysosomal phenotype of our cell model of Sanfilippo B (MPS IIIB).
(§3) Clone 5 was cultured in the presence of 20 μM of each L-deoxyminosugar under normal growth conditions and after 48 hours the lysosomal accumulation was evaluated with immunofluorescence technique by using a specific antibody against Lamp1 (lysosomal marker). […] Furthermore, upon treatment with the active L-deoxyminosugar the lysosomes are no longer concentrated in the perinuclear region of the cells, as occurs in several lysosomal diseases, but they are physiologically distributed throughout the cytoplasm.

[4] = tested on: human adult dermal fibroblasts HDFa; assay: HS and Lamp1 immunofluorescence in control fibroblasts HDFa; assay type: cell-based; conditions: 20 μM, 48 hours
Protocol: (§4) To verify whether the selected iminosugars could exert the same effects also on the fibroblasts of patients affected by Sanfilippo disease, human adult dermal fibroblasts HDFa (purchased from Sigma-Aldrich) were used as control, and fibroblasts of patients affected by Sanfilippo A and B (MPS IIIA and IIIB) were used as disease model.
(§5) Cells were cultured in the presence of the selected L-iminosugars at a dosage of 20 μM and after 48 hours were treated for HS and Lamp1 immunofluorescence. Treatment with L-iminosugars had no effect on control HDFa (Table 3).
(§6) Cells were grown in the presence of the iminosugars D-DNJ, D-NBDNJ, D-AMPDNM and D-MONDNJ at the dosage of 20 μM and after 48 hours were treated for HS and Lamp1 immunofluorescence. Treatment with D-iminosugars had no effect on HDFa and fibroblasts of patients affected by Sanfilippo A and B (MPS IIIA and MPS IIIB) both on HS and lysosome accumulation (Table 4).

[5] = tested on: fibroblasts of patients affected by Sanfilippo B (MPS IIIB); assay: HS and Lamp1 immunofluorescence in Sanfilippo B patient fibroblasts; assay type: cell-based, human; conditions: 20 μM, 48 hours; for Relative fluorescence intensity compared to HDFa, HS / Relative fluorescence intensity compared to HDFa, Lamp1 / Cells positive for HS (%) / Cells positive for Lamp1 (%): MPS-IIIB fibroblasts; for Effect on HS and lysosome (Lamp1) accumulation, in words: Sanfilippo B (MPS IIIB) patient fibroblasts
From the text: as §4
(§7) The human cell lines, fibroblasts, from patients with MPS (Sanfilippo disease) used in the examples were obtained from the G. Gaslini Institute of Genoa, “Cell Line and DNA Biobank from Patients Affected by Genetic Diseases”-Telethon Genetic Biobank Network—Telethon research service. These cells are classified with identification codes and by type of disease without allowing patient identification. Cells were collected from the patients, at the Gaslini Institute, with informed consent to the collection extended to conservation and its possible use, for diagnosis and/or research purposes according to current legislation as required by the guidelines followed by the Telethon biobanks. The Network operates abiding by the Italian Privacy and Data Protection Laws in force, including: Italian Data Protection Authority, Personal Data Protection Code, Legislative Decree no. 196, 30 Jun. 2003, published in Official Gazette No. 174 of the Italian Republic, 29 Jul. 2003; Italian Data Protection Authority, General Authorization for the processing of genetic data, 24 Jun. 2011, published in Official Gazette No. 159 of Italian Republic, 11 Jul. 2011.
as §5, §6

[6] = tested on: NAGLU-silenced clone (cl5) of human neuroblastoma cell line SK-NBE; assay: Heparan sulfate (HS) immunofluorescence in NAGLU-silenced SK-NBE clone, Sanfilippo B model; assay type: cell-based; conditions: 48 hours; for Cells positive for HS (%) / Relative HS fluorescence intensity: cl5 clone, 20 μM; for Effect on HS staining / HS accumulation, in words: clone 5, 20 μM
From the text: as §1
Clone 5 was grown in the presence of 20 μM of each L-iminosugar under normal growth conditions and after 48 hours the accumulation of heparan sulfate (HS) was evaluated by immunofluorescence staining for HS.

[7] = tested on: control clone (WT) of human neuroblastoma cell line SK-NBE; assay: Lamp1 immunofluorescence in control (WT) SK-NBE clone; assay type: cell-based; conditions: 20 μM, 48 hours
From the text: as §1, §2, §3

[8] = tested on: control clone (WT) of human neuroblastoma cell line SK-NBE; assay: Heparan sulfate (HS) immunofluorescence in control (WT) SK-NBE clone; assay type: cell-based; conditions: 20 μM, 48 hours
[9] = tested on: fibroblasts of patients affected by Sanfilippo A (MPS IIIA); assay: HS and Lamp1 immunofluorescence in Sanfilippo A patient fibroblasts; assay type: cell-based, human; conditions: 20 μM, 48 hours; for Relative fluorescence intensity compared to HDFa, HS / Relative fluorescence intensity compared to HDFa, Lamp1 / Cells positive for HS (%) / Cells positive for Lamp1 (%): MPS-IIIA fibroblasts; for Effect on HS and lysosome (Lamp1) accumulation, in words: Sanfilippo A (MPS IIIA) patient fibroblasts
From the text: as §4, §7, §5, §6

[10] = tested on: NAGLU-silenced clone (cl5) of human neuroblastoma cell line SK-NBE; assay: Immunofluorescence against beta-amyloid peptide 1-42 in NAGLU-silenced SK-NBE clone; assay type: cell-based; conditions: 20 μM, 48 hours
Protocol: The clone (c15) stably silenced for NAGLU, the causative gene of MPS IIIB, is able to mimic the features of neurodegenerative diseases as it accumulates beta-amyloid fibers in the cytoplasm. In fact, Sanfilippo Syndrome is also defined as “childhood Alzheimer”.
The diseased clone (c15) was grown in the presence of L-DNJ, L-NBDNJ, L-AMPDNM and L-MONDNJ and the corresponding enantiomers D-DNJ, D-NBDNJ, D-AMPDNM and D-MONDNJ at a dosage of 20 μM and after 48 hours were processed by immunofluorescence against the beta-amyloid peptide 1-42. […] On contrary, treatment with the corresponding D-enantiomers has no effect on the reduction of the accumulation of amyloid fibers compared to the untreated clone (mock) (Table 7).

| SMILES | Cell number [1] | Effect on HS accumulation on the HeLa cell membrane, in words [2] | Relative HS fluorescence intensity [2] | Cells positive for Lamp1 (%) [3] | Relative Lamp1 fluorescence intensity [3] | Effect on lysosomal enlargement and accumulation (lysosomal phenotype), in words [3] | Relative fluorescence intensity compared to HDFa, HS [4] | Relative fluorescence intensity compared to HDFa, Lamp1 [4] | Relative fluorescence intensity compared to HDFa, HS [5] | Relative fluorescence intensity compared to HDFa, Lamp1 [5] | Effect on HS and lysosome (Lamp1) accumulation, in words [5] | Cells positive for HS (%) [6] | Relative HS fluorescence intensity [6] | Effect on HS staining / HS accumulation, in words [6] | Cells positive for Lamp1 (%) [7] | Relative Lamp1 fluorescence intensity [7] | Cells positive for HS (%) [8] | Relative HS fluorescence intensity [8] | Relative fluorescence intensity compared to HDFa, HS [9] | Relative fluorescence intensity compared to HDFa, Lamp1 [9] | further results |
| --- | --- | --- | --- | --- | --- | --- | --- | --- | --- | --- | --- | --- | --- | --- | --- | --- | --- | --- | --- | --- | --- |
| CCCCCCCCCN1C[C@@H](O)[C@H](O)[C@@H](O)[C@@H]1CO [L-NNDNJ•HCl] | 4.2 · 10^5 | did not show any activity | 0.88 | 85% | 2.70 | did not show any activity | 1.0 | 1.0 | 5.8 | 3.1 | did not show any activity | 97.5% | 3.71 | did not show any activity | 4.1% | 1.04 | 4.1% | 0.94 | 4.9 | 3.0 | Effect on HS and lysosome (Lamp1) accumulation, in words [9]: did not show any activity |
| OC[C@@H]1[C@@H](O)[C@H](O)[C@@H](O)CN1CCCCCOCC12CC3CC(CC(C3)C1)C2 [D-AMPDNM•HCl] | 5.1 · 10^5 |  |  |  |  |  |  |  |  |  |  |  |  |  |  |  |  |  |  |  | Relative amyloid fluorescence intensity [10]: 1.02; Cells positive for HS (%) [4]: 4.9%; Cells positive for Lamp1 (%) [4]: 5.1%; Cells positive for HS (%) [5]: 96.4%; Cells positive for Lamp1 (%) [5]: 94.6%; Cells positive for HS (%) [9]: 98.7%; Cells positive for Lamp1 (%) [9]: 96.8% |
| COCCCCCCCCCN1C[C@@H](O)[C@H](O)[C@@H](O)[C@@H]1CO [L-MONDNJ•HCl, N-methoxynonyl L-DNJ] | 3.1 · 10^5 | strong reduction | 0.11 | 21% | 1.00 | dramatic reduction | 1.0 | 1.0 | 1.7 | 1.3 | strong reduction | 4.9% | 1.15 | dramatic reduction | 2.4% | 1.05 | 2.1% | 0.97 | 1.8 | 2.2 | Effect on the number of HeLa cells, in words [1]: decrease; Relative amyloid fluorescence intensity [10]: 0.01; Effect on HS and lysosome (Lamp1) accumulation, in words [9]: strong reduction |
| CCCCCCOCCCCCN1C[C@@H](O)[C@H](O)[C@@H](O)[C@@H]1CO [L-HPDNJ•HCl] | 4.3 · 10^5 | did not show any activity | 0.95 | 87% | 2.10 | did not show any activity | 1.0 | 1.0 | 5.7 | 3.0 | did not show any activity | 95.1% | 3.60 | did not show any activity | 4.8% | 1.00 | 2.4% | 0.95 | 5.4 | 3.1 | Effect on HS and lysosome (Lamp1) accumulation, in words [9]: did not show any activity |
| COCCCCCCCCCN1C[C@H](O)[C@@H](O)[C@H](O)[C@H]1CO.Cl [D-MONDNJ•HCl] | 5.0 · 10^5 |  |  |  |  |  |  |  |  |  |  |  |  |  |  |  |  |  |  |  | Relative amyloid fluorescence intensity [10]: 1.05; Cells positive for HS (%) [4]: 5.0%; Cells positive for Lamp1 (%) [4]: 5.3%; Cells positive for HS (%) [5]: 95.8%; Cells positive for Lamp1 (%) [5]: 93.8%; Cells positive for HS (%) [9]: 99.2%; Cells positive for Lamp1 (%) [9]: 95.2% |
| OC[C@H]1NC[C@H](O)[C@@H](O)[C@@H]1O [D-DNJ•HCl, deoxynojirimycin] | 4.4 · 10^5 |  |  |  |  |  |  |  |  |  |  |  |  |  |  |  |  |  |  |  | Relative amyloid fluorescence intensity [10]: 0.99; Cells positive for HS (%) [4]: 2.4%; Cells positive for Lamp1 (%) [4]: 5.0%; Cells positive for HS (%) [5]: 94.9%; Cells positive for Lamp1 (%) [5]: 92.5%; Cells positive for HS (%) [9]: 97.3%; Cells positive for Lamp1 (%) [9]: 95.0% |
| CCCCCCCCCOCCCCCN1C[C@@H](O)[C@H](O)[C@@H](O)[C@@H]1CO [L-NPDNJ•HCl] | 4.7 · 10^5 | did not show any activity | 1.19 | 84% | 2.65 | did not show any activity | 1.0 | 1.0 | 5.9 | 3.3 | did not show any activity | 97.5% | 3.65 | did not show any activity | 3.7% | 1.10 | 4.4% | 0.93 | 5.2 | 2.8 | Effect on HS and lysosome (Lamp1) accumulation, in words [9]: did not show any activity |
